In patent publication US9226916B2, “Pyrrolidine derivatives” (HOFFMANN-LA ROCHE INC., priority 2009, dated 2016):
Read-outs that look alike come from different tables or passages of the source.

Molecular target: T1, recombinant human NK3 receptor (Homo sapiens, UniProt P29371)
T1 construct: expressed in transfected cells; host or cells: HEK293 cells, transient expression; membranes
T1 sequence (P29371 1-465): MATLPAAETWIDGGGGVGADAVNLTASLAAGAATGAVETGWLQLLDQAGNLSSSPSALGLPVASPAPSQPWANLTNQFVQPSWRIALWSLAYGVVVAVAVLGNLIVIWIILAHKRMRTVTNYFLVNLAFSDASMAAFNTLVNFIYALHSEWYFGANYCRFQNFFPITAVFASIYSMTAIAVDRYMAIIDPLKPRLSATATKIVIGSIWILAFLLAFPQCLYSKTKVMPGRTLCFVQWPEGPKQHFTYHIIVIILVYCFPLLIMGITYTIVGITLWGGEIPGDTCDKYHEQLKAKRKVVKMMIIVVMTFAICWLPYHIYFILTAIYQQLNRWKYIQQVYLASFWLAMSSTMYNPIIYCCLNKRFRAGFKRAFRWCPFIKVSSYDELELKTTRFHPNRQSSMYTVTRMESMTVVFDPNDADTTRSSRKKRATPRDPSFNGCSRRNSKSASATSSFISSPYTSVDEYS
Assay: [3H]SR142801 competition binding assay

[1] = hNK-3 receptor affinity, membranes from HEK293 cells transiently expressing recombinant human NK3 receptor, [3H]SR142801, Cheng-Prussoff, read-out: Data Ki

| Compound | Ki | Ki [1] |
| --- | --- | --- |
| CCC(=O)N1CCC(C(=O)N2C[C@H](c3ccc(Cl)c(Cl)c3)[C@@H](N(C)C(=O)Oc3ccc(F)cc3)C2)CC1 (racemic) [Example 73, rac-[(3R,4S)-4-(3,4-Dichloro-phenyl)-1-(1-propionyl-piperidine-4-carbonyl)-pyrrolidin-3-yl]-methyl-carbamic acid 4-fluoro-phenyl ester] | 0.8 nM |  |
| CN(C(=O)Oc1ccc(F)cc1)[C@H]1CN(C(=O)C2CCN(C(=O)C3CC3)CC2)C[C@@H]1c1ccc(Cl)c(Cl)c1 (racemic) [Example 74, rac-[(3R,4S)-1-(1-Cyclopropanecarbonyl-piperidine-4-carbonyl)-4-(3,4-dichloro-phenyl)-pyrrolidin-3-yl]-methyl-carbamic acid 4-fluoro-phenyl ester] | 0.8 nM |  |
| COCC(=O)N1CCC(C(=O)N2C[C@H](c3ccc(Cl)c(Cl)c3)[C@@H](N(C)C(=O)Oc3ccc(F)cc3)C2)CC1 (racemic) [Example 75, rac-{(3R,4S)-4-(3,4-Dichloro-phenyl)-1-[1-(2-methoxy-acetyl)-piperidine-4-carbonyl]-pyrrolidin-3-yl}-methyl-carbamic acid 4-fluoro-phenyl ester] | 0.6 nM |  |
| CN(C(=O)Oc1ccc(F)cc1)[C@H]1CN(C(=O)C2CCN(C(=O)C3CCOCC3)CC2)C[C@@H]1c1ccc(Cl)c(Cl)c1 (racemic) [Example 76, rac-{(3R,4S)-4-(3,4-Dichloro-phenyl)-1-[1-(tetrahydro-pyran-4-carbonyl)-piperidine-4-carbonyl]-pyrrolidin-3-yl}-methyl-carbamic acid 4-fluoro-phenyl ester] | 0.7 nM |  |
| CN(C(=O)Oc1ccc(F)cc1)[C@H]1CN(C(=O)C2CCN(C3CCOCC3)CC2)C[C@@H]1c1ccc(Cl)c(Cl)c1 (racemic) [Example 77, rac-{(3R,4S)-4-(3,4-Dichloro-phenyl)-1-[1-(tetrahydro-pyran-4-yl)-piperidine-4-carbonyl]-pyrrolidin-3-yl}-methyl-carbamic acid 4-fluoro-phenyl ester] | 1.5 nM |  |
| CN(C(=O)Oc1ccc(F)cc1)[C@H]1CN(C(=O)C2CCN(c3nncs3)CC2)C[C@@H]1c1ccc(Cl)c(Cl)c1 (racemic) [Example 78, rac-[(3R,4S)-4-(3,4-Dichloro-phenyl)-1-(1-[1,3,4]thiadiazol-2-yl-piperidine-4-carbonyl)-pyrrolidin-3-yl]-methyl-carbamic acid 4-fluoro-phenyl ester] | 1.5 nM |  |
| CN(C(=O)Oc1ccc(F)cc1)[C@H]1CN(C(=O)C2CCN(c3ccc(Cl)nn3)CC2)C[C@@H]1c1ccc(Cl)c(Cl)c1 (racemic) [Example 79, rac-[(3R,4S)-1-[1-(6-Chloro-pyridazin-3-yl)-piperidine-4-carbonyl]-4-(3,4-dichloro-phenyl)-pyrrolidin-3-yl]-methyl-carbamic acid 4-fluoro-phenyl ester] | 0.4 nM |  |
| CN(C(=O)Oc1ccc(F)cc1)[C@H]1CN(C(=O)C2CCN(c3ccc(C#N)cn3)CC2)C[C@@H]1c1ccc(Cl)c(Cl)c1 (racemic) [Example 80, rac-[(3R,4S)-1-(5′-Cyano-3,4,5,6-tetrahydro-2H-[1,2′]bipyridinyl-4-carbonyl)-4-(3,4-dichloro-phenyl)-pyrrolidin-3-yl]-methyl-carbamic acid 4-fluoro-phenyl ester] | 0.3 nM |  |
| CN(C(=O)OCCC(F)(F)C(F)(F)F)[C@H]1CN(C(=O)C2CCN(C(=O)C3(C)CC3)CC2)C[C@@H]1c1ccc(Cl)c(Cl)c1 (racemic) [Example 83, rac-{(3R,4S)-4-(3,4-Dichloro-phenyl)-1-[1-(1-methyl-cyclopropanecarbonyl)-piperidine-4-carbonyl]-pyrrolidin-3-yl}-methyl-carbamic acid 3,3,4,4,4-pentafluoro-butyl ester] | 4.2 nM |  |
| CN(C(=O)OCC1CCOC1)[C@H]1CN(C(=O)C2CCN(C(=O)C3(C)CC3)CC2)C[C@@H]1c1ccc(Cl)c(Cl)c1 (mixture of isomers) [Example 85, rac-{(3R,4S)-4-(3,4-Dichloro-phenyl)-1-[1-(1-methyl-cyclopropanecarbonyl)-piperidine-4-carbonyl]-pyrrolidin-3-yl}-methyl-carbamic acid (S)-1-(tetrahydro-furan-3-yl)methyl ester and rac-{(3R,4S)-4-(3,4-Dichloro-phenyl)-1-[1-(1-methyl-cyclopropanecarbonyl)-piperidine-4-carbonyl]-pyrrolidin-3-yl}-methyl-carbamic acid (R)-1-(tetrahydro-furan-3-yl)methyl ester] | 9.2 nM |  |
| CN(C(=O)OCCCC(F)(F)C(F)(F)F)[C@H]1CN(C(=O)C2CCN(C(=O)C3(C)CC3)CC2)C[C@@H]1c1ccc(Cl)c(Cl)c1 (racemic) [Example 88, rac-{(3R,4S)-4-(3,4-Dichloro-phenyl)-1-[1-(1-methyl-cyclopropanecarbonyl)-piperidine-4-carbonyl]-pyrrolidin-3-yl}-methyl-carbamic acid 4,4,5,5,5-pentafluoro-pentyl ester] | 8.3 nM |  |
| CN(C(=O)OCC1(C)CC1)[C@H]1CN(C(=O)C2CCN(C(=O)C3(C)CC3)CC2)C[C@@H]1c1ccc(Cl)c(Cl)c1 (racemic) [Example 91, rac-{(3R,4S)-4-(3,4-Dichloro-phenyl)-1-[1-(1-methyl-cyclopropanecarbonyl)-piperidine-4-carbonyl]-pyrrolidin-3-yl}-methyl-carbamic acid 1-methyl-cyclopropylmethyl ester] |  | 4.4 nM |
| CC1CC1COC(=O)N(C)[C@H]1CN(C(=O)C2CCN(C(=O)C3(C)CC3)CC2)C[C@@H]1c1ccc(Cl)c(Cl)c1 (mixture of isomers) [Example 92, rac-{(3R,4S)-4-(3,4-Dichloro-phenyl)-1-[1-(1-methyl-cyclopropanecarbonyl)-piperidine-4-carbonyl]-pyrrolidin-3-yl}-methyl-carbamic acid 2-methyl-cyclopropylmethyl ester] | 2.3 nM |  |
| CN(C(=O)OCc1ccc(F)cc1)[C@H]1CN(C(=O)C2CCN(C(=O)C3(C)CC3)CC2)C[C@@H]1c1ccc(Cl)c(Cl)c1 (racemic) [Example 95, rac-{(3R,4S)-4-(3,4-Dichloro-phenyl)-1-[1-(1-methyl-cyclopropanecarbonyl)-piperidine-4-carbonyl]-pyrrolidin-3-yl}-methyl-carbamic acid 4-fluoro-benzyl ester] | 5.8 nM |  |
| CN(C(=O)Nc1ccc(F)cc1)[C@H]1CN(C(=O)C2CCN(C(=O)C3(C)CC3)CC2)C[C@@H]1c1ccc(Cl)cc1 (racemic) [Example 96, rac-1-{(3R,4S)-4-(4-Chloro-phenyl)-1-[1-(1-methyl-cyclopropanecarbonyl)-piperidine-4-carbonyl]-pyrrolidin-3-yl}-3-(4-fluoro-phenyl)-1-methyl-urea] |  | 53.7 nM |
| CN(CCC1CC1)C(=O)N(C)[C@H]1CN(C(=O)C2CCN(C(=O)C3(C)CC3)CC2)C[C@@H]1c1ccc(Cl)c(Cl)c1 (racemic) [Example 97, rac-1-(2-Cyclopropyl-ethyl)-3-{(3R,4S)-4-(3,4-dichloro-phenyl)-1-[1-(1-methyl-cyclopropanecarbonyl)-piperidine-4-carbonyl]-pyrrolidin-3-yl}-1,3-dimethyl-urea] |  | 31 nM |
| CN(C(=O)OCCC(C)(C)O)[C@H]1CN(C(=O)C2CCN(C(=O)C3(C)CC3)CC2)C[C@@H]1c1ccc(Cl)c(Cl)c1 (racemic) [Example 98, rac-{(3R,4S)-4-(3,4-Dichloro-phenyl)-1-[1-(1-methyl-cyclopropanecarbonyl)-piperidine-4-carbonyl]-pyrrolidin-3-yl}-methyl-carbamic acid 3-hydroxy-3-methyl-butyl ester] | 48 nM |  |
